Measurements published in US12390437B2, “Itaconic acid derivatives and uses thereof intreating an inflammatory disease or a disease associated with an undesirable immune response” (Sitryx Therapeutics Limited, priority 2019, dated 2025).
Structures can show the parent of a compound that is named as a salt.

How the values were obtained:
[1] = tested on: IL-6 cytokine output from isolated primary human monocytes; experiment: Primary human monocyte AlphaLISA IL-6 cytokine assay; assay type: cell-based; settings: CD14+ primary human monocytes, LPS 24 hr then Nigericin 1 hour
Description: Measuring Inhibitory Effects on IL-1β and IL-6 Cytokine Output from Isolated Primary Human Monocytes
(§1) The cytokine inhibition profiles of compounds of formula (IW-1) were determined in a CD14^+ isolated primary human monocyte cell assay. All assays were performed in RPMI-1640 growth medium (Gibco), supplemented with heat-inactivated fetal bovine serum (FBS) and 1% penicillin-streptomycin unless specified otherwise. The IL-1β and IL-6 cytokine inhibition assays were each run in a background of isolated primary human monocyte cells as described below. All reagents described were from Sigma-Aldrich unless specified otherwise. Compounds were prepared as 100 mM DMSO stocks.
Primary peripheral blood mononuclear cells (PBMCs) were isolated from human whole blood. Following PBMC isolation, a CD14^+ monocyte isolation step was conducted whereby CD14^+ magnetic beads (Miltenyi Biotec) were incubated for 15 minutes with the PBMC suspension that was previously treated with ice cold T-cell isolation buffer (PBS, 0.5% BSA, 2 mM EDTA). Following bead incubation, the treated cell suspension was passed through a magnetic separation column designed to positively select for magnetically labelled cells. The isolated CD14^+ monocytes were subsequently plated at the appropriate cell density for the assay, prior to compound treatment on the day of plating. Working concentrations of compounds were prepared separately in RPMI-1640 only growth medium and pre-incubated with the cells for 30 minutes (37° C./5% CO2). Following the 30 minute compound pre-incubation, primary monocytes were treated with an appropriate concentration of LPS and subsequently incubated for a 24 hr period (37° C./5% CO2). An appropriate final concentration of Nigericin was then dispensed into the primary monocyte plates and incubated for 1 hour (37° C./5% CO2) before monocyte supernatants were harvested and collected in separate polypropylene 96-well holding plates prior to commencing the AlphaLISA cytokine assay.
Reagents from each of the IL-1β and IL-6 commercial kits (Perkin Elmer) were prepared and run according to the manufacturer's instructions. Subsequently, fluorescence signal was measured in a microplate reader (EnVision® Multilabel Reader, Perkin Elmer).
(§2) Percentage inhibition was calculated per cytokine by normalising the sample data to the high and low controls used within each plate (+/−LPS respectively). Percentage inhibition was then plotted against compound concentration and the 50% inhibitory concentration (IC50) was determined from the resultant concentration-response curve.

[2] = tested on: IL-1β cytokine output from isolated primary HMDMs; experiment: Primary human monocyte derived macrophages (HMDMs) AlphaLISA IL-1β cytokine assay; assay type: cell-based; settings: primary HMDMs (M-CSF 7 day), LPS 24 hr then Nigericin 1 hour
Description: Measuring Inhibitory Effects on IL-1β Cytokine Output from Isolated Primary HMDMs
as §1, with “a” for “a CD14^+ isolated primary human”, “monocyte differentiated macrophage” for “monocyte”, “IL-1β” for “IL-1β and IL-6”, “assay was” for “assays were each”, “HMDM” for “human monocyte”
Primary peripheral blood mononuclear cells (PBMCs) were isolated from human whole blood. Following PBMC isolation, a CD14^+ monocyte isolation step was conducted whereby CD14^+ magnetic beads (Miltenyi Biotec) were incubated for 15 minutes with the PBMC suspension that was previously treated with ice cold T-cell isolation buffer (PBS, 0.5% BSA, 2 mM EDTA). Following bead incubation, the treated cell suspension was passed through a magnetic separation column designed to positively select for magnetically labelled cells. The isolated CD14^+ monocytes were subsequently plated at an appropriate cell density and treated fora 7 day period with M-CSF (BioLegend) to drive macrophage differentiation. Following the differentiation period, working concentrations of compounds were prepared separately in RPMI-1640 only growth medium and pre-incubated with the cells for 30 minutes (37° C./5% CO2). Following the 30 minute compound pre-incubation, primary HMDMs were treated with an appropriate concentration of LPS and subsequently incubated for a 24 hr period (37° C./5% CO2). Nigericin was added and incubated for 1 hour prior to harvesting primary HMDM supernatants and collected in separate polypropylene 96-well holding plates prior to commencing the AlphaLISA cytokine assay.
Reagents from the IL-1β commercial kit (Perkin Elmer) was prepared and run according to the manufacturer's instructions. Subsequently, fluorescence signal was measured in a microplate reader (EnVision® Multilabel Reader, Perkin Elmer).
as §2

**Q.** How did the IC50 [1] turn out when `C=C(CC(=O)OCCCCCCCC)C(=O)OCCC#N` [Example 1, 1-(2-cyanoethyl) 4-octyl 2-methylenesuccinate] was run?
**A.** 26900 nM

**Q.** What about the IC50 [2] of the same compound?
**A.** 400 nM

**Q.** What does the source list for `C=C(CC(=O)OCCCCCCCC)C(=O)OCCS(C)(=O)=O` [Example 2, 1-(2-(methylsulfonyl)ethyl) 4-octyl 2-methylenesuccinate]?
**A.** IC50 [1]: 13200 nM; IC50 [2]: 300 nM

**Q.** `C=C(CC(=O)OCCCCCCCC)C(=O)OCCC(F)(F)F` [Example 3, 4-octyl 1-(3,3,3-trifluoropropyl) 2-methylenesuccinate] was tested. Which IC50 [2] did it give?
**A.** 700 nM

**Q.** With `C=C(CC(=O)OCCCCCCCC)C(=O)OC1COC1` [Example 4, 4-octyl 1-(oxetan-3-yl) 2-methylenesuccinate] as the compound, how does the IC50 [2] read?
**A.** 400 nM

**Q.** How did the IC50 [1] turn out when `C=C(CC(=O)OCCCCCCCC)C(=O)OCCN1C(=O)CCC1=O` [Example 9, 1-(2-(2,5-dioxopyrrolidin-1-yl)ethyl) 4-octyl 2-methylenesuccinate] was run?
**A.** 10700 nM

**Q.** And the IC50 [2]?
**A.** 1200 nM

**Q.** `COC(=O)/C=C/C(=O)OC` [dimethyl fumarate, reference compound] was tested. Which IC50 [1] did it give?
**A.** 15700 nM

**Q.** And the IC50 [2]?
**A.** 2000 nM
